Experimental data reported in the supplement of paper PMC10307832.

Key:
Experiment in all cases: relative viability (nuclei count vs DMSO), 5 days (fraction); higher = more cells survive
[1] = compound: CN(C)C(=N)NC(=N)N [Metformin] + Cc1cc(Nc2cc(N3CCN(C)CC3)nc(Sc3ccc(NC(=O)C4CC4)cc3)n2)n[nH]1 [Tozasertib] (partner 0.1 µM)
How it was run: (§1)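 Five library-drug doses in √10 steps were combined with a fixed anchor-drug dose, or a single drug was given alone, by pin tool to lung cancer cell lines in 1536-well plates the day after seeding. Nuclei were stained and counted after 5 days. Relative viability is the nuclei count in treated wells over that in vehicle wells, taken as the median of duplicate plates.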

[2] = compound: N#CC1(c2ccc(NC(=O)c3cccnc3NCc3ccncc3)cc2)CCCC1 [Apatinib] + CC(=O)c1c(C)c2cnc(Nc3ccc(N4CCNCC4)cn3)nc2n(C2CCCC2)c1=O [Palbociclib] (partner 0.5 µM)
How it was run: as §1

[3] = compound: N#CC1(c2ccc(NC(=O)c3cccnc3NCc3ccncc3)cc2)CCCC1 [Apatinib] + CC1(C)CCC(c2ccc(Cl)cc2)=C(CN2CCN(c3ccc(C(=O)NS(=O)(=O)c4ccc(N[C@H](CCN5CCOCC5)CSc5ccccc5)c(S(=O)(=O)C(F)(F)F)c4)cc3)CC2)C1 [Navitoclax] (partner 0.5 µM)
How it was run: as §1

[4] = compound: N#CC1(c2ccc(NC(=O)c3cccnc3NCc3ccncc3)cc2)CCCC1 [Apatinib] + C[C@]1(O)C[C@@H](c2nc(-c3ccc4ccc(-c5ccccc5)nc4c3)c3c(N)nccn32)C1 [Linsitinib] (partner 1 µM)
How it was run: as §1

Row | Cell Line | relative viability ([1]; first compound 31.62 µM) | relative viability ([1]; first compound 100 µM) | relative viability ([1]; first compound 316.23 µM) | relative viability ([1]; first compound 1000 µM) | relative viability ([2]; first compound 0.08 µM) | relative viability ([2]; first compound 0.253 µM) | relative viability ([2]; first compound 0.8 µM) | relative viability ([2]; first compound 2.53 µM) | relative viability ([2]; first compound 8 µM) | relative viability ([3]; first compound 0.08 µM) | relative viability ([3]; first compound 0.253 µM) | relative viability ([3]; first compound 0.8 µM) | relative viability ([3]; first compound 2.53 µM) | relative viability ([3]; first compound 8 µM) | relative viability ([4]; first compound 0.08 µM) | relative viability ([4]; first compound 0.253 µM) | relative viability ([4]; first compound 0.8 µM) | relative viability ([4]; first compound 2.53 µM) | relative viability ([4]; first compound 8 µM) | relative viability ([1]; first compound 10 µM)
1 | 201T | 0.93 | 1.04 | 0.857 | 0.92 | 0.366 | 0.362 | 0.354 | 0.381 | 0.292 | 1.2 | 1.24 | 1.19 | 1.27 | 1.18 | 1.03 | 1.02 | 1.09 | 1.05 | 1.04 | –
2 | NCI-H2009 | 0.856 | 0.802 | 0.759 | 0.783 | 0.423 | 0.206 | 0.227 | 0.203 | 0.167 | 1.22 | 1.23 | 1.12 | 0.913 | 0.826 | 1.26 | 1.16 | 1.17 | 1.08 | 0.799 | 0.761
3 | HCC-78 | 0.571 | 0.487 | 0.4 | 0.629 | 0.48 | 0.453 | 0.476 | 0.494 | 0.442 | 0.884 | 0.631 | 0.821 | 0.58 | 0.648 | 0.631 | 0.395 | 0.536 | 0.405 | 0.401 | 0.637
4 | LCLC-97TM1 | 0.212 | 0.212 | 0.241 | 0.231 | 0.238 | 0.276 | 0.193 | 0.204 | 0.173 | 0.485 | 0.401 | 0.369 | 0.397 | 0.18 | 0.224 | 0.169 | 0.173 | 0.164 | 0.142 | 0.18
